From patent US10752900B2, “Oligonucleotides for modulating gene expression and uses thereof” (BIOGENERA S.P.A., priority 2012, dated 2020)

Tests used:
WERI-Rb1 = test: Cellular proliferation assay (ATP-Lite), WERI-Rb1 cells; type: cell-based; conditions: Table 6
Procedure: For the purpose of assessing the gene modulation ability of the oligonucleotides of the present invention, the effect of their administration on cell viability was determined. For this purpose 5×10^3 cells per well were seeded into 96-well cell culture plates (experiments conducted in triplicate) with 100 μl of OPTI-MEM (GIBCO BRL) medium containing 4% FBS and 2 mM of L-glutammine. The PNA oligonucleotides were administered at different concentrations (1 μM-2.5 μM-5 μM-10 μM) in order to observe a dose-effect relationship. The viability of the treated cells was determined at 48, 72, 96 and 168 hours after treatment. Cell viability was assessed by means of an ATP-Lite assay (Luminescence ATP Detection Assay System, PerkinElmer) and is reported as the ratio between the average signal of the treated wells compared to the average value of the wells of untreated control cells. The cells were processed following the instructions provided with the kit. The assays were performed on the same cell lines used to determine the levels of the MYCN gene messenger and listed in the paragraph: Treatments with Oligonucleotides-QT-PCR. The PNAs having SEQ ID NO: 1-12 were also tested on different cell lines which overexpress MYCN (Kelly, SKNBE2c, RH30, […] 1 and H69). The results are shown in Table 6 and confirm the selectivity and specificity of the inhibition effect of the PNAs on the product of protein translation of the MYCN gene.

MYCN gene = test: QT-PCR, MYCN mRNA in H69 cells; type: cell-based, human; conditions: Table 6
Procedure: For the purpose of assessing the ability of the oligonucleotides of the present invention to modulate the expression of the target genes, their ability to reduce the quantity of messenger RNA was analyzed using the Real-Time PCR technique.
For this purpose, use was made of 24-well plates, which were seeded with 5.0×10^4 cells with 0.3 ml of OPTI-MEM (GIBCO BRL) medium, 4% FBS and 2 mM L-glutammine (experiments in triplicate) per well.
The cells were incubated for 24 hours at 37° C., in an atmosphere containing 5% CO2 to permit adherence to the base of the wells.
For each well, the oligonucleotides were analyzed at the following final concentrations: • the antisense oligonucleotides siRNA and siRNA gapmer (i.e. the oligonucleotides containing one or more monomers of chemically modified nucleic acids at the 3′ or 5′ end, while in the central portion they have monomers of nucleic acids that have not been modified or have been modified at the level of the phosphodiester bond as a phosphorothioate bond) were used at 200 nM; • the antisense oligonucleotides containing phosphorothioate DNA monomers, the RNA antigene oligonucleotides (agRNA) and the oligonucleotides containing DNA monomers and LNA monomers were used at 10 μM; • the morpholino oligonucleotides were used at a concentration of 1 μM, and • the PNA oligonucleotides were administered at a concentration of 1 μM.
The cells were treated with the oligonucleotides, adding FBS up to 4% 6 hours after administration of the same. After 24 hours the total RNA was extracted from each well and purified using the RNeasy Mini Kit (QIAGEN).
Assays were performed on 8 cell lines obtained from 5 different human tumours which are correlated with MYCN expression, i.e.: • as a neuroblastoma model use was made of the cell lines Kelly, IMR-32 (where the MYCN gene is amplified and superexpressed) and SKNBE2c and LAN1 (where the MYCN gene is amplified and superexpressed and the p53 gene is mutated); • as a rabdomiosarcoma model use was made of the cell line RH30, where the MYCN gene is amplified and superexpressed; • as a Wilms' tumour model use was made of the cell line WiT49, where the MYCN gene is amplified and superexpressed; • as a retinoblastoma model use was made of the cell line Y79, where the MYCN gene is amplified and superexpressed; and • as a model of small cell lung cancer use was made of the cell line H69 where the MYCN gene is amplified and superexpressed.
As a control, use was made of the same cell lines as listed above treated with sterile water instead of oligonucleotides. Each RNA sample was quantified (in duplicate) using a NanoDrop ND-1000 spectrophotometer (NanoDrop Technologies). The first strand of cDNA was produced using the cDNA Synthesis Kit for RT-PCR (Roche). For the cDNA synthesis reaction a total of 1 μg of RNA was used. For the real-time PCR, 10 ng of cDNA in a final volume of 20 μl was used with SYBR Green Master Mix 2× (Applied Biosystems) (3 identical experiments were conducted in triplicate). Two housekeeping genes were used as positive controls: GAPDH and beta-actin (ACTB).
The conditions of the QT-PCR reaction were: 10 min at 95° C., 20 sec at 95° C., and 30 sec at 60° C., for 50 cycles.
The PNAs having SEQ ID NO: 1-12 were also tested on different cell lines which overexpress MYCN (Kelly, SKNBE2c, RH30, WiT49, WERI-Rb1 1 and H69). The results are shown in Table 6 and confirm the selectivity and specificity of the inhibition effect of the PNAs on the product of protein translation of the MYCN gene.
The oligonucleotides were tested in vitro (at a concentration of 2.5 μM) to determine their ability to inhibit the transcription of the gene they are directed against by measuring the levels of the gene messenger in cellular models in which the gene of interest is overexpressed. The methods used are the ones described in example 1. […]

Kelly cells = test: Cellular proliferation assay (ATP-Lite), Kelly cells; type: cell-based, human; conditions: for Cell Prolif (%) 1 μM 72 h: PNA 1 μM; for Cell Prolif. (%) 5 μM 72 h: PNA 5 μM; for Cell Prolif. (%) 10 μM 72 h: PNA 10 μM; for Cell Prolif (%) 2,5 μM 72 h: PNA 2,5 μM; for Cell Prolif. (%): Table 1, treated vs untreated control cells; for Kelly % cell prol.: Table 6
In short: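 Kelly cells seeded at 5×10^3/well in OPTI-MEM with 4% FBS and 2 mM L-glutamine, in triplicate. PNA oligonucleotides at 1, 2.5, 5 or 10 μM. Viability by ATP-Lite luminescence at 48, 72, 96 and 168 h, as ratio to untreated controls.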

Phoenix = test: Cellular proliferation, Phoenix fibroblastoid-type cells; type: cell-based; conditions: Table 1; cells that do not express MYCN
Procedure: Cell viability was assessed by means of an ATP-Lite assay (Luminescence ATP Detection Assay System, PerkinElmer) and is reported as the ratio between the average signal of the treated wells compared to the average value of the wells of untreated control cells. The cells were processed following the instructions provided with the kit.
Moreover, the oligonucleotides having SEQ ID NO 1-23 were administered in lines of fibroblastoid-type cells (NIH-3T3 and Phoenix) and the results are shown in Table 1 (last two columns). […]

Substance | WERI-Rb1 % cell prol. (WERI-Rb1) | H69 % mRNA (MYCN gene) | Cell Prolif (%) 1 μM 72 h (Kelly cells) | Cell Prolif. (%) 5 μM 72 h (Kelly cells) | Cell Prolif. (%) 10 μM 72 h (Kelly cells) | Cell Prolif (%) 2,5 μM 72 h (Kelly cells) | Cell Prolif. (%) (Kelly cells) | Kelly % cell prol. (Kelly cells) | Phoenix prolif. (%) (Phoenix) | (Kelly) Cell Prolif. % (Kelly cells; Table 7, SEQ ID NO: 5 and guanine-group mutants)
SEQ ID NO: 1: PNA ATGCCGGGCATGATCT against MYCN; subject of patent EP 1618195, control sequence used for comparison (all peptide nucleic acid (PNA)) [reference compound] | 82% | 40% | 89% | 50% | 24% | 66% | 70% | 66% | 100% | 
SEQ ID NO: 2: PNA antigene oligonucleotide GGGTGGATGCGGGGGG directed against MYCN (PNA backbone, chemistry not fully specified) | 79% | 58% | 74% | 12% | 2% | 32% | 32% | 32% | 100% | 
SEQ ID NO: 3: PNA antigene oligonucleotide GATGCGGGGGGCTCCT directed against MYCN (PNA backbone, chemistry not fully specified) | 78% | 55% | 78% | 19% | 3% | 41% | 41% | 41% | 100% | 
SEQ ID NO: 4: PNA antigene oligonucleotide GTCGGCGGGAGGTAAG directed against MYCN (PNA backbone, chemistry not fully specified) | 79% | 55% | 78% | 21% | 3% | 48% | 48% | 48% | 100% | 
SEQ ID NO: 5: PNA antigene oligonucleotide GCTGGGTGGATGCGGG directed against MYCN (PNA backbone, chemistry not fully specified) | 80% | 54% | 79% | 27% | 5% | 53% | 53% | 53% | 100% | 53%
SEQ ID NO: 6: PNA antigene oligonucleotide TGGACGCGCTGGGTGG directed against MYCN (PNA backbone, chemistry not fully specified) | 80% | 55% | 82% | 35% | 13% | 59% | 54% | 54% | 100% | 
SEQ ID NO: 7: PNA antigene oligonucleotide CGCGCTGGGTGGATGC directed against MYCN (all peptide nucleic acid (PNA)) | 79% | 55% | 80% | 31% | 8% | 54% | 57% | 57% | 100% | 
SEQ ID NO: 8: PNA antigene oligonucleotide GTCTGGACGCGCTGGG directed against MYCN (all peptide nucleic acid (PNA)) | 78% | 56% | 80% | 32% | 11% | 57% | 59% | 59% | 100% | 
SEQ ID NO: 9: PNA antigene oligonucleotide CCCTGCAGTCGGCGGG directed against MYCN (all peptide nucleic acid (PNA)) | 79% | 50% | 86% | 42% | 20% | 64% | 64% | 60% | 100% | 
SEQ ID NO: 10: PNA antigene oligonucleotide CGGCCGCGGGCCGCCA directed against MYCN (PNA backbone, chemistry not fully specified) | 85% | 41% |  |  |  |  | 65% | 64% | 100% | 
SEQ ID NO: 11: PNA antigene oligonucleotide GGGAACTGTGTTGGAG directed against MYCN (PNA backbone, chemistry not fully specified) | 84% | 41% |  |  |  |  | 68% | 64% | 100% | 
SEQ ID NO: 12: PNA antigene oligonucleotide TGTCTGGACGCGCTGG directed against MYCN (all peptide nucleic acid (PNA)) | 84% | 40% | 84% | 40% | 16% | 60% | 69% | 65% | 100% | 
